pIC50, pKd: −log10 of the molar value. Where “and” joins values, the source holds several entries; their conditions need not be identical. Equal entries are not always repeated.
Legend:
Assay in all cases: biochemical
[1] = target: T1, PRKD3 (Homo sapiens, UniProt O94806); set-up: endogenous in cells; host or cells: K562 cell extract; species or system K562 (extract); replicate k of n = 2 (each experiment ID is one independent experiment; two experiment IDs per compound); settings: read-out: KDapp
T1 sequence (O94806 1-890): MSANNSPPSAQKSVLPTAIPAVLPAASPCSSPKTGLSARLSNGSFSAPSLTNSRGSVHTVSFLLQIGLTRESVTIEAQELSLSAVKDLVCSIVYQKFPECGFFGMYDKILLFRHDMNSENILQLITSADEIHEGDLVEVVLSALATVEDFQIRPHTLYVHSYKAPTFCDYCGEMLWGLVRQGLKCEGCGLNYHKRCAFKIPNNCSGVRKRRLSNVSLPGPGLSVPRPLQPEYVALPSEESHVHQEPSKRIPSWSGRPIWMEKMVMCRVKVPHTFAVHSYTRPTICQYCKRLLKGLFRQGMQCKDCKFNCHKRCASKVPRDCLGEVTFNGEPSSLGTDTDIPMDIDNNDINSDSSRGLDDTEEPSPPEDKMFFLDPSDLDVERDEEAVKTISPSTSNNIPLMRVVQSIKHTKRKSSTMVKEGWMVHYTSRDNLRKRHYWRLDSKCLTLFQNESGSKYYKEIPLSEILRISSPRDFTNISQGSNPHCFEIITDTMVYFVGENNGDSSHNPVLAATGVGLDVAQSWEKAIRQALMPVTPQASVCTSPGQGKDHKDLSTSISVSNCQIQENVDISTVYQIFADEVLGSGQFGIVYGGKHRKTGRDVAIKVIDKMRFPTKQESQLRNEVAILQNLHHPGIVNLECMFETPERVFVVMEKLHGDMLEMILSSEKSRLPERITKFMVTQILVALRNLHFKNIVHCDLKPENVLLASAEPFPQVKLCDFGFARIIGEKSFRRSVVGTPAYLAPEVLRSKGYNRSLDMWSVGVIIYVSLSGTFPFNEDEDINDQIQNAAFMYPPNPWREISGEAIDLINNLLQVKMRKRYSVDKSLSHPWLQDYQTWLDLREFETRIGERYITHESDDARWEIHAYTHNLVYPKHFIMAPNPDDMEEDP

[2] = target: T2, STK11 (Homo sapiens, UniProt Q15831); set-up: endogenous in cells; host or cells: K562 cell extract; species or system K562 (extract); replicate k of n = 2 (each experiment ID is one independent experiment; two experiment IDs per compound); settings: read-out: KDapp
T2 sequence (Q15831 1-433): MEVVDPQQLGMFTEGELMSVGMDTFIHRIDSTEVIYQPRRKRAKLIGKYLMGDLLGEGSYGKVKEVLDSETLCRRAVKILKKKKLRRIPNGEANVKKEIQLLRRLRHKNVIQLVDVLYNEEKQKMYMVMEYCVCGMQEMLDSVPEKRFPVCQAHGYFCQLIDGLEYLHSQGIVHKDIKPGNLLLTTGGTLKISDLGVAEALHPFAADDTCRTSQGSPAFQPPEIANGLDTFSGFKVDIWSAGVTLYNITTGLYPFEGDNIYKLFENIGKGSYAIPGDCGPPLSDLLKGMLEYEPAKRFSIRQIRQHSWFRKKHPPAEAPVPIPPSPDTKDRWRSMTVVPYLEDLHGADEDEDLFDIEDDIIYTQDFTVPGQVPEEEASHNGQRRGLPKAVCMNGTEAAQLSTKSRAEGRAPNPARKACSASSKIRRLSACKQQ

[3] = target: MAP2K3 (Homo sapiens, UniProt P46734)
MAP2K3, sequence (P46734 whole entry): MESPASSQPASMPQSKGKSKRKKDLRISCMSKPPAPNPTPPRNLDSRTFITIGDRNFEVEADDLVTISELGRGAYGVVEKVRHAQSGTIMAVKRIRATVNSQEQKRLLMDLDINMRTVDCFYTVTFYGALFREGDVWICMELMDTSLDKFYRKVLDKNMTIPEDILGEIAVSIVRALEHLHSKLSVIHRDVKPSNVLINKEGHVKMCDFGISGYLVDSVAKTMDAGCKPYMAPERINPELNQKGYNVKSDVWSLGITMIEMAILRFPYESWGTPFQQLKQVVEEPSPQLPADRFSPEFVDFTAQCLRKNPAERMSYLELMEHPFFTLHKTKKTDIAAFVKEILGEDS

[4] = target: MAP4K4 (Homo sapiens, UniProt O95819)
MAP4K4, sequence (O95819 whole entry): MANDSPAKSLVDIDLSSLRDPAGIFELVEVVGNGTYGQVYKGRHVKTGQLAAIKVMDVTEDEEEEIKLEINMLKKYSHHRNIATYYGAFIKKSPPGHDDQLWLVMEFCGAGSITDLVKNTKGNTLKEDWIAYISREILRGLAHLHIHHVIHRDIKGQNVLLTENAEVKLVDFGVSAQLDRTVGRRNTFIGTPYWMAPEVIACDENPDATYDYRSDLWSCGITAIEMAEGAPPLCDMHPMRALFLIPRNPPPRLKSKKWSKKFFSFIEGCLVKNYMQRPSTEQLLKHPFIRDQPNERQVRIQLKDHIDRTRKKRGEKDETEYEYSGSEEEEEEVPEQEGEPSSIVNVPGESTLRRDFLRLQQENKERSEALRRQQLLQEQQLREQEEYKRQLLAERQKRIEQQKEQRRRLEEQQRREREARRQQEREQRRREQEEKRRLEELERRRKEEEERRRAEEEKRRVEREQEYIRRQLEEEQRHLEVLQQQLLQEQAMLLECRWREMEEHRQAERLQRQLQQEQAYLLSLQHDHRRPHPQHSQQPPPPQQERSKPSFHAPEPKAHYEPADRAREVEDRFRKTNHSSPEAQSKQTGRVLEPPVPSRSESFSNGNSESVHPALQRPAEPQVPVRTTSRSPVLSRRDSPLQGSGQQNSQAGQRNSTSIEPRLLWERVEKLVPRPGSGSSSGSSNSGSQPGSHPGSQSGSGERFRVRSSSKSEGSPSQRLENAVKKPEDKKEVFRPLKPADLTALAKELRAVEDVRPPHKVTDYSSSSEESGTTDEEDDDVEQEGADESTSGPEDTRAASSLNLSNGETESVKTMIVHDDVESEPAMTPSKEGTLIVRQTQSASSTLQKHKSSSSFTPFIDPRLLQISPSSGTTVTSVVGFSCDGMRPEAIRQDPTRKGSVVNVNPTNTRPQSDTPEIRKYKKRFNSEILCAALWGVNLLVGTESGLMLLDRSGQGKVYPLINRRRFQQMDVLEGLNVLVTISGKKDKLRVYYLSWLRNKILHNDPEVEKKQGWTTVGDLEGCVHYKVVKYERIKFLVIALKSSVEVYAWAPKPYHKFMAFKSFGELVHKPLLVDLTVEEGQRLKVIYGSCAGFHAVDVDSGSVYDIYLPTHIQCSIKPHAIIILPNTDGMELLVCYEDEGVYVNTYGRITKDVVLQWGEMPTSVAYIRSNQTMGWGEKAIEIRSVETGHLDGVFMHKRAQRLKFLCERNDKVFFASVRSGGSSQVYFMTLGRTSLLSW

[5] = target: DSTYK (Homo sapiens, UniProt Q6XUX3)
DSTYK, sequence (Q6XUX3 whole entry): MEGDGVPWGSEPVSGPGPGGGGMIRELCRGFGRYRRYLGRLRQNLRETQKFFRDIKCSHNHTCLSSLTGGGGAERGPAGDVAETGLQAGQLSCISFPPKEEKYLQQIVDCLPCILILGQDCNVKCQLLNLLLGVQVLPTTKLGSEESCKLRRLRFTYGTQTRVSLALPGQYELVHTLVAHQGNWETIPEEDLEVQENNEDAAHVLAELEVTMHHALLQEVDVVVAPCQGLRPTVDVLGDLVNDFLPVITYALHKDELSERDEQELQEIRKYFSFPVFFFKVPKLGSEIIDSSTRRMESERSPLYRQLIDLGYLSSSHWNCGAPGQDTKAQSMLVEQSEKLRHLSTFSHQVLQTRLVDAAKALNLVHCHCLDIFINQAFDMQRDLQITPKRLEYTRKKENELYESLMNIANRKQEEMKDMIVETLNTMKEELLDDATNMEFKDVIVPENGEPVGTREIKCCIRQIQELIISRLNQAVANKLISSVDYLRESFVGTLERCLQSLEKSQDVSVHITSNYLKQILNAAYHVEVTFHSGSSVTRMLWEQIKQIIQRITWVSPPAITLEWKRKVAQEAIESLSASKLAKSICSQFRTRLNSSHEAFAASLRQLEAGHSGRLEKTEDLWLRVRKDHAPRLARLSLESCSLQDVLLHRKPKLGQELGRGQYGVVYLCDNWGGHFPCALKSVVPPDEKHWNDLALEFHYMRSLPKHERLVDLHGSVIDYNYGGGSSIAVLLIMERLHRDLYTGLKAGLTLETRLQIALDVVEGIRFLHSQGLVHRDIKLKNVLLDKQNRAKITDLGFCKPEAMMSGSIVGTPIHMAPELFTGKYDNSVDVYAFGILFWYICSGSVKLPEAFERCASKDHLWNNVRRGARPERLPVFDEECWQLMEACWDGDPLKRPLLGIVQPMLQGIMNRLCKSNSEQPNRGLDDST

[6] = target: LIMK2 (Homo sapiens, UniProt P53671)
LIMK2, sequence (P53671 whole entry): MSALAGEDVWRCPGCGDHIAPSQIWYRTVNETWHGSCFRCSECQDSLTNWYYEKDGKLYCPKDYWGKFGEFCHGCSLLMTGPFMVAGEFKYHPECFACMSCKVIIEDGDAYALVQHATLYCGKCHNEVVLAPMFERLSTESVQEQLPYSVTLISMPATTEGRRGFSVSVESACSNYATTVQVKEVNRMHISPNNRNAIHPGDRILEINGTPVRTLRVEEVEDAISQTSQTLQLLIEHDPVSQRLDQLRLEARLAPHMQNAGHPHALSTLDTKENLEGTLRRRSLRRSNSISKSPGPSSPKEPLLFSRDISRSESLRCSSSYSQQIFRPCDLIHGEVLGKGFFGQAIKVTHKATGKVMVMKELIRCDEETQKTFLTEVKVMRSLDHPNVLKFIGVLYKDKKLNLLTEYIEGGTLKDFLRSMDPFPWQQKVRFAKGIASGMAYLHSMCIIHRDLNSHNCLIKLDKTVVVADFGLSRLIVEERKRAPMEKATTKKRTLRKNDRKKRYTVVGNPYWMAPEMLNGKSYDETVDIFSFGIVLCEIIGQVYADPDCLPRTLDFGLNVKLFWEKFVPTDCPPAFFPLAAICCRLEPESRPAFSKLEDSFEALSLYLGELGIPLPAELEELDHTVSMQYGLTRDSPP

[7] = target: T3, PIP4K2C (Homo sapiens, UniProt Q8TBX8)
T3 sequence (Q8TBX8 1-421): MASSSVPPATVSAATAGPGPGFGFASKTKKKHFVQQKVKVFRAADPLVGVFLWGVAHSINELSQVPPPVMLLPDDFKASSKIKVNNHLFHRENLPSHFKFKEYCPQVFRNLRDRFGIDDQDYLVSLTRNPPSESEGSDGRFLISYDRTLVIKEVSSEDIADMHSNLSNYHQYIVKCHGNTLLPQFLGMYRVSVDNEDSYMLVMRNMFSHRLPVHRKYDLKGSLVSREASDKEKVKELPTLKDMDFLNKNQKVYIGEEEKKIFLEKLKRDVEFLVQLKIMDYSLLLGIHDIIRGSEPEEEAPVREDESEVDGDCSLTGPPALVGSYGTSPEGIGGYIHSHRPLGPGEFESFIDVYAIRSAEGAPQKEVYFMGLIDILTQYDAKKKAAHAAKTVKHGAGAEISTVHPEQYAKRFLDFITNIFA

Compound | pKd [1] | pKd [2] | pIC50 [3] | pIC50 [4] | pIC50 [5] | pIC50 [6] | pIC50 [7]
CN(C)CC(O)COc1ccc(Nc2ncc([N+](=O)[O-])c(Nc3ccccc3O)n2)cc1.O=C(O)C(F)(F)F (stereo not shown) [TCMDC-141399] | 5.39 and 5.47 | 5.40 | < 4.70 | 5.74 and 5.92 | < 4.70 | < 4.70 | –
Cl.NCC1(c2nc(-c3ccc(Cl)c(O)c3)c(-c3ccncc3)[nH]2)CCCCC1 [TCMDC-141154] | 5.41 | 5.90 | < 4.70 | 5.82 and 6.02 | < 4.70 | < 4.70 | < 4.70
CN1CCN(c2ccc(Nc3ncc(C#N)c(Nc4ccccc4C(N)=O)n3)cc2)CC1.Cl [TCMDC-134116] | 6.78 | 6.05 | – | – | – | – | 6.01 and 6.00

Source: PMC4774911, “Biochemical Screening of Five Protein Kinases from Plasmodium falciparum against 14,000 Cell-Active Compounds” (PLoS ONE, 2016)
